# Where two headings read alike, the source gives them in different places.
# Assays:
# [1] = target: human NAMPT (Homo sapiens (Human), UniProt P43490); test: NMN fluorescence biochemical assay (human recombinant NAMPT enzyme assay)
# Outline: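 NMN formed was detected by fluorescence (Ex/Em 355/460 nm) after acetophenone, KOH and formic acid derivatization. The cell-free reaction ran 60 min at ambient temperature with 6 nM human NAMPT, 150 μM nicotinamide, 20 μM PRPP, 2.5 mM ATP, pH 7.2 HEPES, and compound dose responses.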
# [2] = tested on: MDCK-MDR1 cells (P-gp, MDR1); details: dog, MDCK-MDR1, 120 min, 1 μM, pH 7.4
# Method: (§1) A bidirectional permeability assay using Madin Darby canine kidney cells expressing multi-drug resistance gene 1 (MDCK-MDR1) is routinely used to evaluate discovery compounds' BBB permeability and drug efflux toward the advancement of discovery compounds with brain penetration.
# (§2) MDCK-MDR1 Cells (NIH cell line) were obtained from the National Institutes of Health. […] Cell culture medium was replaced every other day, beginning no later than 24 hours after the initial plating. […] The dosing solution concentration was 1 μM for the test article in the assay buffer. Cell monolayers were dosed on the apical side (A-to-B) or basolateral side (B-to-A) and incubated at 37° C. under an atmosphere of 5% CO2 in a humidified incubator. Samples were taken from the donor and receiver chambers at 120 minutes. Each determination was performed in duplicate. After the 120 min transport period, the flux of lucifer yellow was also measured for each monolayer to ensure no damage was inflicted to the cell monolayers during the transport period. All samples were assayed by LC-MS/MS (Waters XSelect HSS T3 C18, 2.5 m, 2.1×50 mm) using electrospray ionization with 0.1% formic acid in water (mobile phase A) and 0.1% formic acid in acetonitrile (mobile phase B) as mobile phases. The apparent permeability coefficient (Papp), in units of cm per second, was calculated for MDCK-MDR1 Cells (NIH cell line) drug transport assays using the following equation:
# (§3) Where VA is the volume (in mL) in the acceptor well, Area is the surface area of the membrane (0.143 cm^2 for Transwell-96 Well Permeable Supports), and time is the total transport time in seconds.
# (§4) The leakage of Lucifer Yellow (LY), in unit of percentage (%), can be calculated using the following equation:
# (§5) LY leakage of <1% is acceptable to indicate the well-qualified MDCK-MDR1(NIH) monolayer.
# [3] = tested on: P-gp (MDR1); test: in vitro; details: dog, MDCK-MDR1, pH 7.4, Efflux ratio
# Method: as §1, §2, §3, §4, §5
# [4] = Brain exposure assay in mice (brain-to-plasma ratio after oral administration); assay type: in vivo; details: mouse, 100 mg/kg
# Method: This protocol was used to determine the brain-to-plasma ratio in vivo in mice post oral administration of test compounds. Mice (C57BL/6JNIFDC, male, non-fasted, 18-30 g body weight, 3 mice for each timepoint) were dosed orally at 100 mg/kg (10 mg test compound/mL formulation, 10 mL dosing volume/kg) with plasma and brain tissues obtained at 2- and 6-hours post-administration. The oral dosing formulation composition used was 10% N,N-dimethylacetamide:20% propylene glycol:70% of 40% aqueous 2-hydroxypropyl-β-cyclodextrin.
# For the isolation of mouse plasma from dosed animals, approximately 0.3 mL blood was collected by orbital sinus bleed and centrifuged (4000 g, 5 minutes, 4° C.). The plasma samples were stored frozen at −75±15° C. until further processing.
# For the isolation of brain tissue from dosed animals, whole brain tissues were collected from euthanized and fully exsanguinated mice. The tissues were quickly rinsed with distilled water, dried with absorbent paper, followed by rapid freezing on dry ice and then storage at −75±15° C. until further processing. Brain tissue samples obtained from frozen whole brain were weighed and the samples homogenized using three equivalents of distilled water (3 mL per gram of brain tissue).
# Standard and quality control samples were prepared by adding 3 μL of the test compound dimethyl sulfoxide (DMSO) stock solutions to blank plasma (30 μL) and blank brain homogenate aliquots (30 μL). Standard curves for brain and plasma were generated over a 1 to 1,000 ng/g test compound concentration range. For the extraction of test compound from plasma and brain tissue homogenate samples, a solution of acetonitrile containing internal standard ([…]) was added to 30 μL of samples with added 3 μL of DMSO. The samples then were vortex-mixed followed by centrifugation at 4000 rpm (4° C., 15 minutes). The resultant supernatants were diluted 5-fold with distilled water. Finally, 10 μL of the diluted supernatant was injected onto an LC-MS/MS instrument for quantitative analysis of test compound.
# The brain-to-plasma ratio was calculated by the relationship: Brain-to-plasma ratio=Cbrain/Cplasma; where Cb is the concentration in brain tissue and Cp is the concentration in plasma at the corresponding timepoint.
# Kp is the total brain-plasma concentration ratio; Kp=Cbrain/Cplasma.
# Kp, uu is the unbound brain-to-plasma partition coefficient (Kp,uu,brain). It is a measure of the extent of the distribution equilibrium of a compound between the unbound (free) fractions in brain and in blood plasma; Kp, uu brain=Cu, brain/Cu, plasma.
# [5] = Plasma protein binding (PPB), mouse; assay type: in vitro ADME; details: mouse, plasma
# [6] = Brain tissue binding, mouse; assay type: in vitro ADME; details: mouse, brain tissue
# [7] = tested on: MDCK-MDR1 cells (P-gp, MDR1); test: MDR1-MDCK bidirectional permeability assay; details: A to B
# Method: as §1, §2, §3, §4, §5
# [8] = tested on: P-gp (MDR1); test: MDR1-MDCK bidirectional permeability assay; details: dog, MDCK-MDR1, pH 7.4, Efflux ratio
# Method: as §1, §2, §3, §4, §5
# Chain of human NAMPT (P43490 whole entry): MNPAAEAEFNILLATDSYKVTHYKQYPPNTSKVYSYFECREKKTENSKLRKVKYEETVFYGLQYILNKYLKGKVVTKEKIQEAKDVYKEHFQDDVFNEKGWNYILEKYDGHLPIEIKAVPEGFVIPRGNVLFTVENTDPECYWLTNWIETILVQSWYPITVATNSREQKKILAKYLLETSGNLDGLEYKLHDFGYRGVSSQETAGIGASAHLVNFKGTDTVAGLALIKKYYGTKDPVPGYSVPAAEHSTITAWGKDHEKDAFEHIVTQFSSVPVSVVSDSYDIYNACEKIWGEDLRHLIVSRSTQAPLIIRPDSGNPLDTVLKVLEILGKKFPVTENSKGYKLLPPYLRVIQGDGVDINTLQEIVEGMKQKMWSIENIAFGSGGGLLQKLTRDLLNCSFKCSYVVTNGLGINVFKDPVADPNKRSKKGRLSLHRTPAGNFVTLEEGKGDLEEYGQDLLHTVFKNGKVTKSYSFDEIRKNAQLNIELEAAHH
SMILES,AC1.4 Human [1] [µM],EC50 [1] [µM],PappAB [2],"efflux ratio at 120 min, 1 μM [3]","concentration at 6 h ([4]; male, C57BL/6JNIFDC, brain, oral, 6 hr, read-out: Cbrain, free) [µM]","concentration at 6 h ([4]; male, C57BL/6JNIFDC, brain, oral, 6 hr, read-out: Cbrain, total) [µM]","concentration at 6 h ([4]; male, C57BL/6JNIFDC, plasma, oral, 6 hr, read-out: Cplasma, free) [µM]","concentration at 6 h ([4]; male, C57BL/6JNIFDC, plasma, oral, 6 hr, read-out: Cplasma, total) [µM]","Kp at 2 h ([4]; male, C57BL/6JNIFDC, oral, 2 hr, total brain-plasma concentration ratio)","Kp uu at 2 h ([4]; male, C57BL/6JNIFDC, oral, 2 hr, unbound brain-to-plasma partition coefficient)","Kp at 6 h ([4]; male, C57BL/6JNIFDC, oral, 6 hr, total brain-plasma concentration ratio)","Kp uu at 6 h ([4]; male, C57BL/6JNIFDC, oral, 6 hr, unbound brain-to-plasma partition coefficient)","Cbrain, free (μM) ([4]; 2 hr)","Cbrain, total (μM) ([4]; 2 hr)","Cplasma, free (μM) ([4]; 2 hr)","Cplasma, total (μM) ([4]; 2 hr)",fraction unbound [5],fraction unbound [6],PappAB [7],"efflux ratio at 120 min, 1 μM [8]"
"O=C(Nc1ccc(CC2CC3CCC(C2)N3S(=O)(=O)C2CC2)cc1)OCc1cnco1 (stereo not shown) [Compound 395, oxazol-5-ylmethyl (4-((8-(cyclopropylsulfonyl)-8-azabicyclo[3.2.1]octan-3-yl)methyl)phenyl)carbamate]",0.12,3.2,2.81,5.02,–,–,–,–,–,–,–,–,–,–,–,–,–,–,–,–
"CN(C)C(=O)N1CCC(Cc2ccc(NC(=O)OCc3cnco3)cc2F)CC1 [Compound 449, oxazol-5-ylmethyl (4-((1-(dimethylcarbamoyl)piperidin-4-yl)methyl)-3-fluorophenyl)carbamate]",0.10,2.93,–,–,0.28,8.4,0.39,18,0.42,0.64,0.47,0.72,"0.83, μM","25.0, μM","1.30, μM","59.4, μM",0.022,0.033,3.53,5.74

# — patent US20240279215A1 (Cytokinetics, Incorporated, priority 2022, published 2024)
